Laboratory results: ChEMBL document CHEMBL4507265 (2021)
pKi: −log10 of the molar value.

Key:
[1] = molecular target: D(3) dopamine receptor (Homo sapiens) (UniProt P35462); settings: Compound concentration 10.0 uM
[2] = molecular target: Alpha-2B adrenergic receptor (Homo sapiens, UniProt P18089); experiment: GPCRScan assay: inhibition of Alpha2B; design: radioligand conc. used [nm] 1.5 – 2.0, parental cells HEKT
[3] = molecular target: T1, Muscarinic acetylcholine receptor M2 (Homo sapiens) (UniProt P08172); settings: Compound concentration 10.0 uM
T1 sequence (whole entry): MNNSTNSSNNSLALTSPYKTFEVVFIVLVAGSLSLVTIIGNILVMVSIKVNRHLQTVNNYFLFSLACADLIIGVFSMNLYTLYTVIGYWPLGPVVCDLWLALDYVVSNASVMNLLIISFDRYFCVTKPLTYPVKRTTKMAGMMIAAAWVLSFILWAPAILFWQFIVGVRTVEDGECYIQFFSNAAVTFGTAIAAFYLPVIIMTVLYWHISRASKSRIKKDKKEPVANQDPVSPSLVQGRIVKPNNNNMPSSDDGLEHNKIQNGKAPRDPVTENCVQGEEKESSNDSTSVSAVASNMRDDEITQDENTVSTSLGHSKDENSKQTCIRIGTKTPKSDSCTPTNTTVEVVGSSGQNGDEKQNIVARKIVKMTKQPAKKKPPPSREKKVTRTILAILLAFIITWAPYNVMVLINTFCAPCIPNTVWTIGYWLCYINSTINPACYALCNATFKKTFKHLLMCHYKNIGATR

[4] = molecular target: Delta-type opioid receptor (Homo sapiens) (UniProt P41143); settings: Compound concentration 10.0 uM
Chain of Delta-type opioid receptor (Homo sapiens) (P41143 whole entry): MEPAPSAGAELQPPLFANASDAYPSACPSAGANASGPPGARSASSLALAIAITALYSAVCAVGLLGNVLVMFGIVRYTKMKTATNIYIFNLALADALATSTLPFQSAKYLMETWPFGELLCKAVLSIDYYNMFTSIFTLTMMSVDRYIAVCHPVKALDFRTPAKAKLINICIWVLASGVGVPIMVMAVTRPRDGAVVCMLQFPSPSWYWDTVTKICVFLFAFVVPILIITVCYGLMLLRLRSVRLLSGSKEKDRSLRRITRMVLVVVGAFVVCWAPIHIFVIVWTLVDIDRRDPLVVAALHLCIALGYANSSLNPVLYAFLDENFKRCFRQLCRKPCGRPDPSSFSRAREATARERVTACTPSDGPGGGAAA

[5] = molecular target: ATP-sensitive inward rectifier potassium channel 11 (Cricetulus griseus) (UniProt A0A3L7HHE1); experiment: Inhibition of Potassium Channel [KATP] at 10 µM in the Eurofins-Panlabs radioligand binding assay (Eurofins_assay_265600); settings: Cricetinae; Compound concentration 10.0 uM
Chain of ATP-sensitive inward rectifier potassium channel 11 (Cricetulus griseus) (A0A3L7HHE1 as listed by the source): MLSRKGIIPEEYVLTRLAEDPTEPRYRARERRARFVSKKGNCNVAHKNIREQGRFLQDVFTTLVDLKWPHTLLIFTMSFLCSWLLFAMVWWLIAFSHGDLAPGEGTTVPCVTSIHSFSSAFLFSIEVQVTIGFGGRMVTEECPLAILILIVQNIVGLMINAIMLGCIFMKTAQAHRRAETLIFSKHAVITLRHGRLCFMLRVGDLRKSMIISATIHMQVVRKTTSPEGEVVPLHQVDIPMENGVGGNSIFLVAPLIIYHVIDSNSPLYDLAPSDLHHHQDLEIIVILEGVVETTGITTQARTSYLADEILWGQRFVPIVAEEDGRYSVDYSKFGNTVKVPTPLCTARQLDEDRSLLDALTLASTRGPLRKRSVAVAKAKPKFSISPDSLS

[6] = molecular target: T2, D(4) dopamine receptor (Homo sapiens) (UniProt P21917); experiment: Inhibition of Dopamine D4.2 at 10 µM in the Eurofins-Panlabs radioligand binding assay (Eurofins_assay_219900); design: ligand concentration 0.5 nM; settings: Compound concentration 10.0 uM
T2 sequence (whole entry): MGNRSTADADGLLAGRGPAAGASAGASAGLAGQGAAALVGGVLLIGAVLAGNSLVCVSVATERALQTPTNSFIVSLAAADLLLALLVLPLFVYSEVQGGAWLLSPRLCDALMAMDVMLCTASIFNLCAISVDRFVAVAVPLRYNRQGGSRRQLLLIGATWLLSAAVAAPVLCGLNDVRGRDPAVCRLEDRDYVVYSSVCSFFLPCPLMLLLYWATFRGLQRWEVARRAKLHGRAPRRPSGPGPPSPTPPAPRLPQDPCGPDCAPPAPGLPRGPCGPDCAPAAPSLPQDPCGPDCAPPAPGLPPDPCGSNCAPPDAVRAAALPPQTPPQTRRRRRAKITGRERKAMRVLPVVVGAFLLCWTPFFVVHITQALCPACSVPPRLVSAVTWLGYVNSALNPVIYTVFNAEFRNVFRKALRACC

[7] = molecular target: Glutamate NMDA receptor (Rattus norvegicus) (UniProt P35439+Q00959+Q00960+Q00961+Q62645+Q8VHN2+Q9R1M7); settings: Compound concentration 10.0 uM

Chain of Alpha-2B adrenergic receptor (P18089 whole entry): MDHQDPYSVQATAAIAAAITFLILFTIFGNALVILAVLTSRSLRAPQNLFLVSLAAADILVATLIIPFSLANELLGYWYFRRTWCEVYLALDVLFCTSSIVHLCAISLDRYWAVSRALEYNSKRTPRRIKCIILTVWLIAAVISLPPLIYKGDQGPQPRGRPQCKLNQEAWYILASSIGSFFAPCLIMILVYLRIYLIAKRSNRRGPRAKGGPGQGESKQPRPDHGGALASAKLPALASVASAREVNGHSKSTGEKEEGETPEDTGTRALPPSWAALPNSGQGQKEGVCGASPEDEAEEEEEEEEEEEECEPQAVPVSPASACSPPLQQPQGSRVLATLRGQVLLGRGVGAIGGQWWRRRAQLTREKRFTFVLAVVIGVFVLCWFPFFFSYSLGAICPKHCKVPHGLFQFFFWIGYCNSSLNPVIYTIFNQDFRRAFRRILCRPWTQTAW
Chain of D(3) dopamine receptor (Homo sapiens) (P35462 whole entry): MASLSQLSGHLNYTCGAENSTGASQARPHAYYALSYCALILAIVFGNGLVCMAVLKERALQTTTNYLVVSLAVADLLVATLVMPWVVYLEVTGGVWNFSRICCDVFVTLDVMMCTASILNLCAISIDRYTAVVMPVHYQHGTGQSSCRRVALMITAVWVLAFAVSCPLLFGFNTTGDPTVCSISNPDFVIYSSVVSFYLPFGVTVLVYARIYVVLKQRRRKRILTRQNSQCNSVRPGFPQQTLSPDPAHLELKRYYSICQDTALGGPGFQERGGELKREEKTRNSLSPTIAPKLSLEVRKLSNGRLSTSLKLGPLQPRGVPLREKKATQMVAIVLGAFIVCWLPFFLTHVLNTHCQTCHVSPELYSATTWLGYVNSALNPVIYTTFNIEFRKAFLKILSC

NS(=O)(=O)c1cc(NC(=O)Cc2ccccc2)ccc1Oc1cccc(Cl)c1 [BAY-1797]
inhibition [1]: 28% | pKi ([2]; read-out: Ki): 5.37 | Ki ([2]; read-out: pKi (converted)): 4.32 µM | inhibition [3]: 4% | inhibition [4]: 4% | inhibition [5]: -9% | inhibition [6]: 4% | inhibition [7]: -9%
